Test results published in patent US11207312B2, “Metallo-beta-lactamase inhibitors and methods of use thereof” (priority 2017, dated 2021).
≈ marks a conversion by molar mass, not a printed value.

Legend:
Test in all cases: microbe, parasite or virus in culture
Type in all cases: cell-based, Pseudomonas aeruginosa
[1] = system: efflux+ MB5919 Trans pFlp-Vim2 plasmid
MB5890 (OprD+, efflux-) = system: MB5890 (OprD+, efflux-)
Text: (§1) The strain background is Pseudomonas aeruginosa PAO1. A wild-type (M135919) and an isogenic strain in which multiple efflux pumps have been disrupted genetically were used. The MBL IMP-1, obtained from a clinical isolate was introduced into the strain pair by the following process:
(§2) The plasmid DNA was transformed into parental MB5919 (oprD+, efflux+, inducible AmpC) and MB5890 (oprD+, efflux−, inducible AmpC) isogenic strains by electroporation.
(§3) Minimum inhibitory concentrations of sentinel antibiotics were performed to quality control the new strains.

MB5919 (OprD+, efflux+) = system: MB5919 (OprD+, efflux+)
Text: as §1, §2, §3

[2] = system: MB9798 (efflux+ MB5919 Trans IMP1 plasmid)
Text: as §1, §2, §3

[3] = system: MB9799 (efflux- MB5890 Trans IMP1 plasmid)
Text: as §1, §2, §3

[4] = system: efflux- MB5890 Trans pFlp-Vim2 plasmid
[5] = system: MB9862 (efflux- MB5890 trans pFlp-Vim1)
[6] = system: MB9861 (Efflux+ MB5919 Trans pFlp-Vim1 plasmid)
[7] = OprD+, efflux+, MB5919 Trans pFlp-Vim2 plasmid
[8] = MB9798, OprD+, efflux+, MB5919 Trans IMP1 plasmid (CL 5673)
[9] = MB9799, OprD+, efflux−, MB5890 Trans IMP1 plasmid (CL 5673)
[10] = OprD+, efflux−, MB5890 Trans pFlp-Vim2 plasmid
[11] = MB9862, OprD+, efflux−, MB5890 trans pFlp-Vim1
[12] = MB9861, OprD+, Efflux+, MB5919 Trans pFlp-Vim1 plasmid

Row | SMILES | MIC [1, 7] | MIC (MB5890 (OprD+, efflux-); MB5890, OprD+, efflux−) | MIC (MB5919 (OprD+, efflux+); MB5919, OprD+, efflux+) | MIC [2, 8] | MIC [3, 9] | MIC [4, 10] | MIC [5, 11] | MIC [6, 12] | MIC ([1]; Pseudomonas aeruginosa) | MIC (MB5890 (OprD+, efflux-); Pseudomonas aeruginosa) | MIC (MB5919 (OprD+, efflux+); Pseudomonas aeruginosa) | MIC ([2]; Pseudomonas aeruginosa) | MIC ([3]; Pseudomonas aeruginosa) | MIC ([4]; Pseudomonas aeruginosa) | MIC ([5]; Pseudomonas aeruginosa) | MIC ([6]; Pseudomonas aeruginosa)
1 | CC(C)(O/N=C(\C(=O)N[C@@H]1C(=O)N2C(C(=O)[O-])=C(C[n+]3ccccc3)CS[C@H]12)c1csc(N)n1)C(=O)O [CAZ, ceftazidime] | 128 µg/mL (≈ 234 µM) | 0.5 µg/mL (≈ 0.915 µM) | 1 µg/mL (≈ 1.83 µM) | 256 µg/mL (≈ 468 µM) | 256 µg/mL (≈ 468 µM) | 64 µg/mL (≈ 117 µM) | >256 µg/mL | >256 µg/mL | – | – | – | – | – | – | – | –
2 | O=C(N[C@H](CO)[C@H](O)c1ccc([N+](=O)[O-])cc1)C(Cl)Cl [Chloramphenicol, chloramphenicol] | – | – | – | – | – | – | – | – | > 64 µg/mL | 1 µg/mL (≈ 3.09 µM) | > 64 µg/mL | > 64 µg/mL | 1 µg/mL (≈ 3.09 µM) | 1 µg/mL (≈ 3.09 µM) | 2 µg/mL (≈ 6.19 µM) | > 64 µg/mL
3 | C[C@@H](O)[C@H]1C(=O)N2C(C(=O)O)=C(SCCN=CN)C[C@H]12 [Imipenem, imipenem] | >64 µg/mL | 2 µg/mL (≈ 6.68 µM) | 4 µg/mL (≈ 13.4 µM) | 64 µg/mL (≈ 214 µM) | 32 µg/mL (≈ 107 µM) | 32 µg/mL (≈ 107 µM) | 64 µg/mL (≈ 214 µM) | >64 µg/mL | – | – | – | – | – | – | – | –
4 | C[C@@H](O)[C@H]1C(=O)N2C(C(=O)O)=C(S[C@@H]3CN[C@H](C(=O)N(C)C)C3)[C@H](C)[C@H]12 [Meropenem, meropenem] | >64 µg/mL | 0.5 µg/mL (≈ 1.3 µM) | 2 µg/mL (≈ 5.22 µM) | >64 µg/mL | 64 µg/mL (≈ 167 µM) | 32 µg/mL (≈ 83.4 µM) | 64 µg/mL (≈ 167 µM) | >64 µg/mL | – | – | – | – | – | – | – | –
5 | CCN1CCN(C(=O)N[C@@H](C(=O)N[C@@H]2C(=O)N3[C@@H]2SC(C)(C)[C@@H]3C(=O)O)c2ccccc2)C(=O)C1=O [Pipercillin, piperacillin] | >256 µg/mL | 1 µg/mL (≈ 1.93 µM) | 2 µg/mL (≈ 3.86 µM) | 4 µg/mL (≈ 7.73 µM) | 4 µg/mL (≈ 7.73 µM) | 128 µg/mL (≈ 247 µM) | 128 µg/mL (≈ 247 µM) | >256 µg/mL | – | – | – | – | – | – | – | –
